Experiment in all cases: growth of human tumour cells (NCI), 48 h
In assay [1] the test system is ACHN.
In assay [2] the test system is OVCAR-4.
For assay [3], the system named is SK-MEL-2.
The subject of assay [4] is HCC 2998.
The test system of assay [5] is SNB-75.
The subject of assay [6] is M14.
In assay [7] the test system is HCT-15.
In assay [8] the test system is UACC-62.
Assay [9] deals with KM12.
Assay [10] has as its system OVCAR-3.
The test system of assay [11] is A498.
Assay [12] deals with COLO 205.
Assay [13] concerns CAKI-1.
Assay [14] has as its system NCI-H522.
In assay [15] the test system is SF-539.
The test system of assay [16] is MDA-MB-231.
The subject of assay [17] is NCI-H226.
The subject of assay [18] is UACC-257.
For assay [19], the system named is U-251.
Assay [20] relates to Malme-3M.

Structures are written as SMILES.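 Values below derive from 48-hour exposures of cells grown in 96-well plates, with endpoints linearly interpolated between the two concentrations bracketing the appropriate inhibition level. Here, GI50 denotes the concentration required for 50% inhibition of growth.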 The source made the active and inactive calls. Cut-off read from the data, not from the text of the source: active = GI50 up to about 1.1 µM and inactive = higher.

The text below walks through data of ChEMBL document CHEMBL1201862, “PubChem BioAssay data set” (2004).

`COC(=O)C1=CON2C3CC4CC(C3)CC(C4)C12C` (stereo not drawn): the GI50 in [1], in [2], in [3], in assay [4], in assay [5] and in assay [6] was > 100 µM (inactive) in each case. Moreover, the GI50 in assay [7] is > 100 µM; in assay [8] it was > 100 µM (inactive); in assay [9] it was > 100 µM (inactive); in assay [10] it was > 100 µM (inactive); in assay [11], > 100 µM (inactive); in assay [12], > 100 µM (inactive). The GI50 in assay [13], in assay [14], in assay [15], in [16], in assay [17] and in assay [18] was > 100 µM (inactive) throughout. Besides, the GI50 in assay [19] and in assay [20] was > 100 µM (inactive) each time.

On to `N#Cc1c(C#N)c(-c2ccco2)n(-c2ccccc2)c1N`, for which the GI50 was > 100 µM (inactive) in assay [1]; > 100 µM (inactive) in assay [2]; > 100 µM (inactive) in assay [3]; > 100 µM (inactive) in [4]; 26.5 µM (inactive) in assay [5]; > 100 µM (inactive) in assay [6]. Moreover, the GI50 was > 100 µM in assay [7]; > 100 µM (inactive) in assay [8]; > 100 µM (inactive) in assay [9]; > 100 µM (inactive) in assay [10]; > 100 µM (inactive) in [11]; > 100 µM (inactive) in [12]. In addition, the GI50 in [13] is > 100 µM (inactive); in assay [14], > 100 µM (inactive); in assay [15], 38.5 µM (inactive); in [16] it was 31.7 µM (inactive); in assay [17], 29.5 µM (inactive); in [18] it was > 100 µM (inactive). Further, the results for the GI50 in assay [19] and in assay [20] were 35.5 µM (inactive) and > 100 µM (inactive), respectively.

On to `CSc1c(C#N)c(O)n(-c2ccc(Cl)cc2)c(=O)c1C#N`, for which the GI50 was > 100 µM (inactive) in [2]; > 100 µM (inactive) in assay [3]; > 100 µM (inactive) in assay [4]; > 100 µM (inactive) in [5]; > 100 µM (inactive) in assay [6]; 97.9 µM in assay [7]. Besides, the GI50 in [8] was 44.6 µM (inactive); in assay [9] it was 36 µM (inactive); in assay [10] it was > 100 µM (inactive); in [11], 45.2 µM (inactive); in [12], > 100 µM (inactive); in [13], 49.4 µM (inactive). Further, the GI50 in assay [14] was 40.5 µM (inactive); in assay [15] it was > 100 µM (inactive); in [16] it was > 100 µM (inactive); in assay [17], 48.1 µM (inactive); in assay [18], > 100 µM (inactive); in assay [19] it was > 100 µM (inactive). Further, the GI50 in assay [20] was > 100 µM (inactive).

As to `CC1CNC(c2ccc(CN3CCC(CCCC4CCN(Cc5ccc(C6=NC(C)CN6)cc5)CC4)CC3)cc2)=N1` (stereo not drawn), the GI50 was > 100 µM (inactive) in assay [1]; 19.7 µM (inactive) in assay [2]; 21.7 µM (inactive) in assay [3]; 14.8 µM (inactive) in [4]; 23.4 µM (inactive) in assay [5]; 62.5 µM (inactive) in [6]. The GI50 in assay [7] is > 100 µM; in [8], 59.8 µM (inactive); in [9], 16.9 µM (inactive); in assay [10] it was > 100 µM (inactive); in assay [11] it was > 100 µM (inactive); in assay [12], 17.6 µM (inactive). Further, the GI50 in assay [13] is > 100 µM (inactive); in assay [14], 23.5 µM (inactive); in assay [15] it was 29.6 µM (inactive); in [16], 21.2 µM (inactive); in assay [17], 32.9 µM (inactive); in assay [18], 18.8 µM (inactive). For the same compound, the GI50 is 35 µM (inactive) in assay [19] and > 100 µM (inactive) in [20].

As to `CCOC(=O)c1c(-c2ccccc2)oc(=O)c(Cc2cccc3cccnc23)c1-c1ccccc1`, the GI50 in assay [1], in [2], in assay [3], in [4], in assay [5] and in assay [6] was > 10 µM (inactive) throughout. Moreover, the GI50 in assay [7] was > 10 µM; in assay [8], > 10 µM (inactive); in assay [9], > 10 µM (inactive); in assay [10], > 10 µM (inactive); in [11], > 10 µM (inactive); in assay [12] it was > 10 µM (inactive). In addition, the GI50 in assay [13], in [14], in assay [15], in [16], in [17] and in [18] was > 10 µM (inactive) in each case. The GI50 in assay [19] and in [20] was > 10 µM (inactive) throughout.

Regarding `C=CCN1C(=O)/C(=C/c2cccs2)N=C1SC/C=C/C`, the GI50 is 35.5 µM (inactive) in assay [1]; 23.3 µM (inactive) in [2]; 27.2 µM (inactive) in assay [3]; 48.3 µM (inactive) in [4]; 17.3 µM (inactive) in assay [5]; 69.5 µM (inactive) in [6]. In addition, the GI50 in assay [7] is 33.5 µM; in assay [8] it was 32.4 µM (inactive); in assay [9] it was 31.3 µM (inactive); in [10] it was 44.8 µM (inactive); in assay [11] it was 27 µM (inactive); in assay [12], 31.6 µM (inactive). The GI50 in assay [13] is 46.9 µM (inactive); in assay [14], 26.9 µM (inactive); in assay [15], 58.3 µM (inactive); in [16] it was 68.1 µM (inactive); in assay [17], > 100 µM (inactive); in assay [18], 40.3 µM (inactive). Further, the GI50 in [19] is 37.7 µM (inactive); in assay [20] it was 34 µM (inactive).

For the compound `C[C@H]1[C@H]2[C@H](C[C@@]3(C)C4=CC[C@H]5C(C)(C)[C@@H](OC6OCC(O)C(O)C6O)CC[C@@]56C[C@@]46CC[C@]23C)O[C@@]2(O)[C@@H]1OC(C)(C)[C@H]2O` (stereo partly drawn), the GI50 in assay [1] was 2.12 µM (inactive); in assay [2], 1.92 µM (inactive); in assay [3] it was 5.53 µM (inactive); in assay [4] it was 0.681 µM (active); in assay [5], 1.62 µM (inactive); in [6], 3.83 µM (inactive). Further, the GI50 in assay [7] is 1.05 µM; in [8], 1.61 µM (inactive); in assay [9], 1.48 µM (inactive); in [10] it was 3.01 µM (inactive); in assay [11] it was 1.89 µM (inactive); in [12] it was 2.67 µM (inactive). The GI50 was 2.05 µM (inactive) in [13]; 0.605 µM (active) in assay [14]; 1.95 µM (inactive) in assay [15]; 1.81 µM (inactive) in assay [16]; 2.44 µM (inactive) in assay [17]; 1.6 µM (inactive) in assay [18]. The GI50 is 1.69 µM (inactive) in assay [19] and 0.993 µM (active) in assay [20].

Take `CC(OP(=O)(O)O)C(N)C(=O)O` (stereo not drawn): the GI50 in [1], in [2], in [3], in assay [4], in assay [5] and in assay [6] was > 100 µM (inactive) throughout. The GI50 in assay [7] was > 100 µM; in assay [8] it was > 100 µM (inactive); in assay [9] it was > 100 µM (inactive); in assay [10], > 100 µM (inactive); in assay [11], > 100 µM (inactive); in assay [12], > 100 µM (inactive). Also, the GI50 in assay [13], in [14], in assay [15], in [16], in [17] and in [18] was > 100 µM (inactive) in each case. Also, the GI50 in assay [19] and in assay [20] was > 100 µM (inactive) each time.

For `C[C@]12CCC(=O)[C@@H](CCC3=CC(=O)C=CC3=O)[C@@H]1CCC2=O`, the GI50 in assay [1] is 16.6 µM (inactive); in assay [2], 17.2 µM (inactive); in [3], 11.7 µM (inactive); in [4] it was 15.3 µM (inactive); in assay [5], 5.48 µM (inactive); in [6] it was 17.8 µM (inactive). Besides, the GI50 in assay [7] is 17.4 µM; in assay [8], 16.6 µM (inactive); in assay [9], 14.3 µM (inactive); in assay [10], 17.1 µM (inactive); in [11], 17.5 µM (inactive); in [12], 13 µM (inactive). The GI50 in [13] is 12.7 µM (inactive); in assay [14], 2.19 µM (inactive); in assay [15], 11.4 µM (inactive); in assay [16] it was 20.3 µM (inactive); in [17], 20.7 µM (inactive); in assay [18] it was 17.8 µM (inactive). Also, the GI50 in assay [19] was 20.7 µM (inactive); in assay [20], 16.1 µM (inactive).

Take `COc1c(OC(C)=O)c(OC(C)=O)cc2c1-c1ccc(OC)c(=O)cc1C(NC(C)=O)CC2` (stereo not drawn): the GI50 in [1] was 0.439 µM (active); in [2] it was 31.9 µM (inactive); in [3], 0.0186 µM (active); in [4], 0.0217 µM (active); in assay [5], < 0.01 µM (active); in assay [6], < 0.0125 µM (active). Moreover, the GI50 is 0.465 µM in assay [7]; < 0.01 µM (active) in assay [8]; 0.0154 µM (active) in [9]; 0.0138 µM (active) in [10]; 0.0513 µM (active) in assay [11]; 0.0171 µM (active) in assay [12]. Further, the GI50 in assay [13] is 0.054 µM (active); in [14], 0.0114 µM (active); in assay [15], < 0.0122 µM (active); in assay [16] it was 0.0129 µM (active); in assay [17] it was 0.331 µM (active); in assay [19] it was 0.0321 µM (active). Further, in assay [20], the GI50 was < 0.01 µM (active).
